Article PMC4370192, “Discovery of Specific Inhibitors for Intestinal E. coli β-Glucuronidase through In Silico Virtual Screening” (The Scientific World Journal, 2015)

Assays:
[1] = molecular target: T1, human βG (hβG) (Homo sapiens, UniProt P08236); assay: In vitro βG-activity assay (pNPG hydrolysis), hβG; assay type: biochemical; conditions: pH 5.4, percent of activity vs untreated control
T1 construct: histidine tag (N); made in house; host or cells: E. coli BL21 (DE3)
T1 sequence (P08236 23-651): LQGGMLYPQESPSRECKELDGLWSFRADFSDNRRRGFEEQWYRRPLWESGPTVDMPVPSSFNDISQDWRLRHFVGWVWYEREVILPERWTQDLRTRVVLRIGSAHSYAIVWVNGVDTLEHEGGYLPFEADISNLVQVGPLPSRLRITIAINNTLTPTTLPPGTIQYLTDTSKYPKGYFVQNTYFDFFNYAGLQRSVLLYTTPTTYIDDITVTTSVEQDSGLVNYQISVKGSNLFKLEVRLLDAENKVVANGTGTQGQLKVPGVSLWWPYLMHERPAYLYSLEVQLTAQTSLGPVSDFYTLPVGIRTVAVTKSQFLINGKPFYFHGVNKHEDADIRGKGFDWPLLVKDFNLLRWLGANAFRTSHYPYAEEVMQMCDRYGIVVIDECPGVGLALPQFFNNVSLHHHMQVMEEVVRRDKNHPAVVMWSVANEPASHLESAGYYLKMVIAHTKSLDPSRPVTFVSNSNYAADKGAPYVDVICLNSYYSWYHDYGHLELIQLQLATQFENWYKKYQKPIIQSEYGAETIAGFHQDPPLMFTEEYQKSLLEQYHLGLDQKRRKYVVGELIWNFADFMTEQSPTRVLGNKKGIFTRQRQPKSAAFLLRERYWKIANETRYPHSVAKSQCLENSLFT
Procedure: (§1) Plasmid pRESTB containing βG gene and a histidine tag at the N-terminus was constructed as described. Recombinant βG (human and E. coli) was produced by isopropyl β-D-thiogalactopyranoside (IPTG) induction of BL21 (DE3) bacteria. βG was purified from bacterial supernatants by affinity chromatography on nickels Sepharose 6 Fast Flow (GE Healthcare). The column was washed by phosphate-buffered saline (PBS), with 50 mM imidazole, and βG was eluted by PBS with 250 mM imidazole. The purified βG was desalted on a Sephadex G-25 column equilibrated with PBS and stored at −80°C.
(§2) The candidate compounds were purchased from SPECS (The Netherlands). Each candidate was provided as a solid power and dissolved in 100% DMSO (Sigma-Aldrich) to 10 mM as stock. Candidates were screened for their inhibition specificity of eβG versus hβG, which were conducted at pH 7.3 or pH 5.4, in triplicate, respectively. 40 μL purified βG was treated with 10 μL compound solution at 37°C for 30 min and sequentially incubated with 50 μL of pNPG (Sigma-Aldrich) at 37°C for 30 min. Reactions were quenched with 5 μL of 2 N sodium hydroxide (Sigma-Aldrich). Each reaction consisted of 3.75 ng purified βG, 50 μM compound, and 5 mM pNPG in PBS containing 10% DMSO and 0.05% BSA (Sigma-Aldrich). βG-activities were measured by color development of pNP detected on a microplate reader at OD 405 nm.
(Table S1) The candidate compounds were purchased from SPECS (Zoetermeer, The Netherlands). Each candidate was rovided as a solid power and dissolved in 100% DMSO (Sigma-Aldrich, MO, USA) to 10 mM as stock. Candidates were screening for their inhibition specificity of eβG verse hβG, which were conducted at pH 7.3 or pH 5.4 in triplicate, respectively. 40 µL purified βG was treated with 10 µL compound solution at 37 °C for 30 min, and sequentially incubated with 50 µL of pNPG (Sigma-Aldrich) at 37 °C for 30 min. Reactions were quenched with 5 µL of 2 N sodium hydroxide (Sigma-Aldrich). Each reaction consisted of 3.75 ng purified βG, 50 µM compound, and 5 mM pNPG in PBS containing 10% DMSO and 0.05% BSA (Sigma-Aldrich). βG-activities were measured by color development of pNP detected on a microplate reader at OD 405 nm. […]
candidate compounds were purchased from SPECS (Zoetermeer, The Netherlands). Each candidate was provided as a solid power and dissolved in 100% DMSO (Sigma-Aldrich, MO, USA) to 10 mM as stock. Candidates were screening for their inhibition specificity of eβG verse hβG, which were conducted at pH 7.3 or pH 5.4 in triplicate, respectively. 40 μL purified βG was treated with 10 μL compound solution at 37 °C for 30 min, and sequentially incubated with 50 μL of pNPG (Sigma-Aldrich) at 37 °C for 30 min. Reactions were quenched with 5 μL of 2 N sodium hydroxide (Sigma-Aldrich). Each reaction consisted of 3.75 ng purified βG, 50 μM compound, and 5 mM pNPG in PBS containing 10% DMSO and 0.05% BSA (Sigma-Aldrich). βG-activities were measured by color development of pNP detected on a microplate reader at OD 405 nm.

[2] = molecular target: T2, E. coli β-glucuronidase (eβG) (Escherichia coli, UniProt P05804); assay: In vitro βG-activity assay (pNPG hydrolysis), eβG; assay type: biochemical; conditions: 50 μM compound, pH 7.3, percent of activity vs untreated control
T2 construct: histidine tag (N); made in house; host or cells: E. coli BL21 (DE3)
Procedure: as §1
as §2, with “nm. […] For IC50 determination, compounds at various concentrations (100 μM to 0.001 μM) were added.” for “nm.”
Supplementary file 740815.f1.pdf: Fifty-nine candidate compounds were acquired from the initial virtually screening which was designed to target the bacterial loop of eβG and its active site. The docking energy scores of 59 candidate compounds measured by the DOCK program are -43 to -55 kcal/mol. (Table S1) The candidate compounds were purchased from SPECS (Zoetermeer, The Netherlands). Each candidate was rovided as a solid power and dissolved in 100% DMSO (Sigma-Aldrich, MO, USA) to 10 mM as stock. Candidates were screening for their inhibition specificity of eβG verse hβG, which were conducted at pH 7.3 or pH 5.4 in triplicate, respectively. 40 µL purified βG was treated with 10 µL compound solution at 37 °C for 30 min, and sequentially incubated with 50 µL of pNPG (Sigma-Aldrich) at 37 °C for 30 min. Reactions were quenched with 5 µL of 2 N sodium hydroxide (Sigma-Aldrich). Each reaction consisted of 3.75 ng purified βG, 50 µM compound, and 5 mM pNPG in PBS containing 10% DMSO and 0.05% BSA (Sigma-Aldrich). βG-activities were measured by color development of pNP detected on a microplate reader at OD 405 nm. […] Especially, the inhibiting ability against eβG activity was >95% in 7 candidates of eβG specific inhibitors (Table S1).
Fifty-nine candidate compounds were acquired from the initial virtually screening which was designed to target the bacterial loop of eβG and its active site. The docking energy scores of 59 candidate compounds measured by the DOCK program are -43 to -55 kcal/mol. (Table S1) The candidate compounds were purchased from SPECS (Zoetermeer, The Netherlands). Each candidate was provided as a solid power and dissolved in 100% DMSO (Sigma-Aldrich, MO, USA) to 10 mM as stock. Candidates were screening for their inhibition specificity of eβG verse hβG, which were conducted at pH 7.3 or pH 5.4 in triplicate, respectively. 40 μL purified βG was treated with 10 μL compound solution at 37 °C for 30 min, and sequentially incubated with 50 μL of pNPG (Sigma-Aldrich) at 37 °C for 30 min. Reactions were quenched with 5 μL of 2 N sodium hydroxide (Sigma-Aldrich). Each reaction consisted of 3.75 ng purified βG, 50 μM compound, and 5 mM pNPG in PBS containing 10% DMSO and 0.05% BSA (Sigma-Aldrich). βG-activities were measured by color development of pNP detected on a microplate reader at OD 405 nm. […]
percent of βG activity compared with the untreated control.
Especially, the inhibiting ability against eβG activity was >95% in 7 candidates of eβG specific inhibitors (Table S1).
Table S1. […]

T2 sequence (P05804 whole entry): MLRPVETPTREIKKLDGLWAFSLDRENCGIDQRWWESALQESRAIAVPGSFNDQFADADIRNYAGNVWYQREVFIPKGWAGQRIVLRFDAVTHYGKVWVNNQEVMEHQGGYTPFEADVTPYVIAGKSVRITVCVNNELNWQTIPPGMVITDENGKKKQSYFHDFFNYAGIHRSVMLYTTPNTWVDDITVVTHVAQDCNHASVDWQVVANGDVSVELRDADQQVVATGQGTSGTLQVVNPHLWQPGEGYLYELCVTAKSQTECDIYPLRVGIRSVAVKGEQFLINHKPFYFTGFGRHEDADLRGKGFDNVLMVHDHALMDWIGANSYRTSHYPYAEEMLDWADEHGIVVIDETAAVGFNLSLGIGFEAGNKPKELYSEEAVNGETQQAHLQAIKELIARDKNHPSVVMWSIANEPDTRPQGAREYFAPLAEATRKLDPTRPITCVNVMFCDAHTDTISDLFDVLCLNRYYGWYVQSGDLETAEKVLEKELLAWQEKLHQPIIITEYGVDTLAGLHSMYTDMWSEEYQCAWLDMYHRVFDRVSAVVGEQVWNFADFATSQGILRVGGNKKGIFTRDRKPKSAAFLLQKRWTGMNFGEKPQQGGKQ

Compound | hβG activity (%) with 50 μM compound [1] [%] | eβG activity (%) with 50 μM compound [2] [%]
O=C1c2ccccc2C(=O)c2c1cccc2S(=O)(=O)Nc1ccc(Cl)cc1 [Compound 8074] | 109.09 | 22.15
O=S(=O)(c1ccc(Br)cc1)N1CCNCC1 [Compound 8329] | 97.77 | 33.19
Cc1cccc(C(=O)NC2(C(F)(F)F)C(=O)Nc3c2c(=O)[nH]c(=O)n3-c2ccc(Cl)cc2)c1 (stereo not shown) [Compound 8572] | 102.81 | 17.66
Cc1cc(NS(=O)(=O)c2ccc(NC(=O)C(C)Oc3ccc(Cl)cc3Cl)cc2)no1 (stereo not shown) [Compound 8889] | 102.15 | 11.40
CS(=O)(=O)CCC(C(=O)O)N1C(=O)c2ccccc2C1=O (stereo not shown) [Compound 9063] | 105.45 | 32.48
CS(=O)(=O)c1ccc2nc(NC(=O)c3ccccc3C(=O)O)sc2c1 [Compound 9107] | 105.37 | 29.70
COc1ccc(Cl)cc1NC(=O)CC(C(=O)O)N1CCNCC1 (stereo not shown) [Compound 9183] | 107.36 | 39.67
CCN(CC)S(=O)(=O)c1cccc(N=Nc2c(O)[nH]c(=O)[nH]c2=O)c1 [Compound 9274] | 106.69 | 32.34
CCN1CCN(S(=O)(=O)c2cccc(Cl)c2)CC1 [Compound 9572] | 106.78 | 42.66
Cc1ccc2nc(CSc3nc(-c4ccncc4)ccc3C#N)[nH]c2c1 [Compound 9665] | 100.83 | 8.97
COc1ccc2ccccc2c1CNCC1CCNCC1 [Compound 9927] | 113.80 | 25.00
